Assay results as given in patent US8361999B2, “Methods of treating cholesterol gallstone disease with ezetimibe” (Pontificia Universidad Catolica de Chile, priority 2005, dated 2013).

Legend:
[1] = tested on: C57BL/6J mice; test: Glutathione biliary secretion; type: in vivo, mouse; details: lithogenic diet (FIG. 4)
Procedure: Surgery and sample harvest. The groups were maintained for 14 days (protocol #1) or 30 days (protocol #2) in the different experimental conditions. During the last three days of the protocols, 24 h depositions were collected from the different groups (pool) to determine the fecal excretion of neutral sterols (cholesterol) and acidic sterols (bile salts). At the end of the time established in the protocols, the mice were anesthetized (between 08:00-10:00 AM) with an intraperitoneal pentobarbital injection in doses of 4.5 mg per 100 gr body weight (Amigo et al., 2000) and subjected to surgery. Standardized surgery consists in an extended […] and visualization of abdominal organs, including liver, biliary tree and gallbladder. […] Afterwards, the common biliary duct is cannulated (biliary fistula) with a P-10 polyethylene cannula to collect bile during 15 minutes, determine bile flow by gravimetry (1 g bile=1 ml; bile flow is expressed as μl/min/g of mouse liver) and for posterior chemical analysis of biliary lipids and glutathione, as specified later. […]
Biliary gluthation. Biliary gluthation was quantified from the bile obtained by cannulation of the biliary duct for a 5 minute period with tubes containing 5 μl sulfosalicylic acid. […] The reaction mix was incubated at 37° C., measured at 412 nm, and an enzymatic kinetic curve was obtained using different […] concentrations as standard. […]

[2] = tested on: C57BL/6J mice; test: Plasma cholesterol and plasma lipoprotein profile, protocol #1; type: in vivo, mouse
Procedure: (§1) Surgery and sample harvest. The groups were maintained for 14 days (protocol #1) or 30 days (protocol #2) in the different experimental conditions. During the last three days of the protocols, 24 h depositions were collected from the different groups (pool) to determine the fecal excretion of neutral sterols (cholesterol) and acidic sterols (bile salts). At the end of the time established in the protocols, the mice were anesthetized (between 08:00-10:00 AM) with an intraperitoneal pentobarbital injection in doses of 4.5 mg per 100 gr body weight (Amigo et al., 2000) and subjected to surgery. Standardized surgery consists in an extended […] and visualization of abdominal organs, including liver, biliary tree and gallbladder. First, we performed a resection of the gallbladder (cholecystectomy), with the cystic duct previously ligated (Amigo et al., 2002; Amigo et al., 2000; Amigo et al., 2003b). The gallbladder is removed and visually inspected to determine the presence of gallstones. Then, the gallbladder bile is extracted to analyze the presence of cholesterol crystals in the fresh samples under the microscope with polarized light (20×). Aliquots are stored at −20° C. for subsequent chemical analysis. Afterwards, the common biliary duct is cannulated (biliary fistula) with a P-10 polyethylene cannula to collect bile during 15 minutes, determine bile flow by gravimetry (1 g bile=1 ml; bile flow is expressed as μl/min/g of mouse liver) and for posterior chemical analysis of biliary lipids and glutathione, as specified later. […] Then, the liver is removed, weighted, frozen in liquid nitrogen and stored at −80 for subsequent analyses. The plasma is separated by centrifugation at 1,500 rpm and stored at −80° C. for later analysis. The animal protocols were approved by our institution Ethics Committee and the animals were treated according to international care rules for experimental animals.
(§2) Intestinal absorption of cholesterol and bile salts. The capacity of Ezetimibe to inhibit cholesterol and bile salt absorption was indirectly determined by quantification of neutral sterols (cholesterol) and acidic sterols (bile acids) present in the feces collected on day 12, 13 and 14 of the experiment (three days). In order to determine cholesterol (neutral sterols) fecal excretion, the feces were dried at 50° C. for three days and then weighted to obtain an average of fecal excretion per day (in grams). The feces were homogenized in a mortar, and 5 ml 2N NaOH:methanol, 1:1 are added per 100 mg (dry weight) aliquots of the homogenate. The sample is vortex and incubated at 60° C. for 1 h for saponification, then it is cooled and 5 ml petroleum ether is added followed by vigorous agitation to obtain the separation of the hydrophobic and hydrophilic phases. The samples are then centrifuged at 1,000 rpm for 10 minutes and the hydrophobic phase (upper layer) is recovered. Second and third extractions are performed by adding 5 ml petroleum ether to the hydrophilic phase. The hydrophobic phases are dried under gaseous nitrogen and the lipids are resuspended in 1 ml chloroform. 50 μl aliquots, in duplicate, are dried at room temperature, and total cholesterol is quantified according to the enzymatic method described above. The values obtained are expressed as μmoles cholesterol/day/100 g of mouse (Miettinen et al., 1965). […]

[3] = tested on: SR-BI; test: Hepatic expression of SR-BI; type: in vivo, mouse; details: 14 days
[4] = tested on: intestinal cholesterol absorption; details: mammalian models (murine models); cited from earlier work
[5] = tested on: C57BL/6J mice; test: Lipid content and cholesterol saturation index in gallbladder bile; type: in vivo, mouse; details: for Gallbladder Bile Bile salts / Gallbladder Bile Cholesterol / Gallbladder Bile Colesterol Saturation Index / Gallbladder Bile Phospholipids: 14 days
Procedure: as §1
as §2, with “1965). In order to determine fecal excretion of bile acids the mice feces were collected during three days (days 12-14), dried at 50° C. for one week and weighted. The feces are then homogenized in a mortar; (^14C) cholic acid, 200,000 cpm is added to 1 g of the homogenate to determine the degree of recovery. The samples are then mixed with NaBr, NaOH and HCl, dissolved in ethanol and incubated at 120° C. for 8 h in a reflux system. The hydrolyzed fecal samples are resuspended in NaOH and dried under gaseous N2. The pellet obtained is resuspended in ethanol and run through Sep-Pak columns to eliminate all bile salts contaminants.” for “1965).”

[6] = tested on: C57BL/6J mice; test: Biliary flow and hepatic secretion of biliary lipids; type: in vivo, mouse
Procedure: as §1
Intestinal absorption of cholesterol and bile salts. The capacity of Ezetimibe to inhibit cholesterol and bile salt absorption was indirectly determined by quantification of neutral sterols (cholesterol) and acidic sterols (bile acids) present in the feces collected on day 12, 13 and 14 of the experiment (three days). In order to determine cholesterol (neutral sterols) fecal excretion, the feces were dried at 50° C. for three days and then weighted to obtain an average of fecal excretion per day (in grams). […] 50 μl aliquots, in duplicate, are dried at room temperature, and total cholesterol is quantified according to the enzymatic method described above. The values obtained are expressed as μmoles cholesterol/day/100 g of mouse (Miettinen et al., 1965). […]

O=C1[C@H](CC[C@H](O)c2ccc(F)cc2)[C@@H](c2ccc(O)cc2)N1c1ccc(F)cc1 [Ezetimibe, (−)-1-(4-fluorophenyl)-(3R)-[3-(4-fluorophenyl)-(.S)-hydroxypropyl]-(4S)-(4-hydroxyphenyl)-2-azetidinone]
increase in glutathione secretion vs lithogenic diet only (significant) [1]: 200%
Plasma Cholesterol ([2]; Chow + Ezetimibe, 14 days): 86.21 ± 13.8 mg/dL
Plasma Cholesterol ([2]; Lithogenic + Ezetimibe, 14 days): 161.38 ± 38.96 mg/dL
plasma lipoprotein profile, ezetimibe groups vs controls ([2]; chow and lithogenic diets, 14 days (FIG. 2)): did not show significant differences
concentration of total cholesterol in plasma, with vs without ezetimibe ([2]; control diet, 14 days): similar
increase of plasma cholesterol concentration, with vs without ezetimibe ([2]; lithogenic diet, 14 days): similarly
hepatic expression of SR-BI, lithogenic diet plus Ezetimibe vs lithogenic diet [3]: no significant differences
dosages that effectively inhibit intestinal cholesterol absorption [4]: 0.1-6 mg/kg body weight per day
Gallbladder Bile Bile salts ([5]; Chow + Ezetimibe): 65.00 mmol/L
Gallbladder Bile Cholesterol ([5]; Chow + Ezetimibe): 1.19 mmol/L
Gallbladder Bile Colesterol Saturation Index ([5]; Chow + Ezetimibe): 51.7%
Gallbladder Bile Phospholipids ([5]; Chow + Ezetimibe): 11.62 mmol/L
Gallbladder Bile Bile salts ([5]; Lithogenic + Ezetimibe): 70.37 mmol/L
Gallbladder Bile Cholesterol ([5]; Lithogenic + Ezetimibe): 1.35 mmol/L
Gallbladder Bile Colesterol Saturation Index ([5]; Lithogenic + Ezetimibe): 53.2%
Gallbladder Bile Phospholipids ([5]; Lithogenic + Ezetimibe): 12.92 mmol/L
changes in cholesterol content, bile salts or lecitine in gallbladder bile ([5]; control diet): did not induce significant changes
cholesterol saturation index, with vs without Ezetimibe ([5]; control diet): similar
decrease of cholesterol content in the gallbladder bile ([5]; lithogenic diet): 50-60%
reduction in the cholesterol saturation index ([5]; lithogenic diet): 50%
biliary flow larger than in the group on lithogenic diet without ezetimibe (significant) ([6]; lithogenic diet): 50-60%
secretion of bile salts and phospholipids vs group without ezetimibe ([6]; lithogenic diet (FIG. 3)): increase
secretion of biliary cholesterol vs group without ezetimibe ([6]; lithogenic diet (FIG. 3)): did not associate to a greater secretion
increase in biliary flow (slight, non-significant) ([6]; low cholesterol control diet): 30-40%
